Measured values as given in PubChem BioAssay AID1845196 (Molecular Pharmacology Branch, DTP, NCI, 2023).
pIC50: −log10 of the molar value.

System: 292921-168-R tumor spheroid viability
Assay: Anticancer human tumor 292921-168-R patient-derived pancreatic carcinoma cell line growth inhibition
Details: spheroids with HUVEC and MSC; for pIC50: curve of first compound; for viability, T/C: stronger effect = lower value
In short: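 Single agents and combinations were tested on spheroids built from tumor cells plus HUVEC and hMSC, at half-log dilutions starting at or near clinical Cmax, else 10 microM; final DMSO 0.25% (v/v).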

[1] = second compound 0.003 µM, first compound 0.0316 µM
[2] = second compound 0.003 µM, first compound 0.1 µM
[3] = second compound 0.003 µM, first compound 0.316 µM
[4] = second compound 0.003 µM, first compound 1 µM
[5] = second compound 0.003 µM, first compound 3.16 µM
[6] = second compound 0.003 µM, first compound 10 µM
[7] = second compound 0.00949 µM, first compound 0.0316 µM
[8] = second compound 0.00949 µM, first compound 0.1 µM
[9] = second compound 0.00949 µM, first compound 0.316 µM
[10] = second compound 0.00949 µM, first compound 1 µM
[11] = second compound 0.00949 µM, first compound 3.16 µM
[12] = second compound 0.00949 µM, first compound 10 µM
[13] = second compound 0.03 µM, first compound 0.0316 µM
[14] = second compound 0.03 µM, first compound 0.1 µM
[15] = second compound 0.03 µM, first compound 0.316 µM
[16] = second compound 0.03 µM, first compound 1 µM
[17] = second compound 0.03 µM, first compound 3.16 µM
[18] = second compound 0.03 µM, first compound 10 µM
[19] = second compound 0.0949 µM, first compound 0.0316 µM
[20] = second compound 0.0949 µM, first compound 0.1 µM
[21] = second compound 0.0949 µM, first compound 0.316 µM
[22] = second compound 0.0949 µM, first compound 1 µM
[23] = second compound 0.0949 µM, first compound 3.16 µM
[24] = second compound 0.0949 µM, first compound 10 µM
[25] = second compound 0.3 µM, first compound 0.0316 µM
[26] = second compound 0.3 µM, first compound 0.1 µM
[27] = second compound 0.3 µM, first compound 0.316 µM
[28] = second compound 0.3 µM, first compound 1 µM
[29] = second compound 0.3 µM, first compound 3.16 µM
[30] = second compound 0.3 µM, first compound 10 µM
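Note: spheroids exposed to compounds for 7 days.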

Row | SMILES | pIC50 (second compound 0.003 µM) | pIC50 (second compound 0.00949 µM) | pIC50 (second compound 0.03 µM) | pIC50 (second compound 0.0949 µM) | pIC50 (second compound 0.3 µM) | viability, T/C [1] [%] | viability, T/C [2] [%] | viability, T/C [3] [%] | viability, T/C [4] [%] | viability, T/C [5] [%] | viability, T/C [6] [%] | viability, T/C [7] [%] | viability, T/C [8] [%] | viability, T/C [9] [%] | viability, T/C [10] [%] | viability, T/C [11] [%] | viability, T/C [12] [%] | viability, T/C [13] [%] | viability, T/C [14] [%] | viability, T/C [15] [%] | other results
1 | CC(C)n1c(=O)n(C)c2cnc3cc(F)c(-c4ccc(OCCCN5CCCCC5)nc4)cc3c21 + CC[C@@]1(O)C(=O)OCc2c1cc1n(c2=O)Cc2cc3c(CN(C)C)c(O)ccc3nc2-1 | > 7.50 | > 7.50 | > 7.50 | > 7.50 | > 7.50 | 45.7 | 42.4 | 44.9 | 42.3 | 41.4 | 20.4 | 25.4 | 23.7 | 22.3 | 25.2 | 24.4 | 18.7 | 20.2 | 22.4 | 20.4 | viability, T/C [16]: 20.4%; viability, T/C [17]: 23.2%; viability, T/C [18]: 16.7%; viability, T/C [19]: 13.2%; viability, T/C [20]: 14.7%; viability, T/C [21]: 13.7%; viability, T/C [22]: 14.8%; viability, T/C [23]: 16.8%; viability, T/C [24]: 14.8%; viability, T/C [25]: 4.72%; viability, T/C [26]: 4.71%; viability, T/C [27]: 5.4%; viability, T/C [28]: 6.25%; viability, T/C [29]: 8.92%; viability, T/C [30]: 10.4%
2 | CC1COCCN1c1cc(-c2ccnn2C)c2ccnc(-c3ccn[nH]3)c2n1 (stereo not given) + CC[C@@]1(O)C(=O)OCc2c1cc1n(c2=O)Cc2cc3c(CN(C)C)c(O)ccc3nc2-1 | > 7.50 | > 7.50 | > 7.50 | > 7.50 | > 7.50 | 22.8 | 13.6 | 10 | 12.2 | 14.4 | 15.4 | 11.6 | 9.97 | 10 | 11.8 | 13.8 | 15 | 8.44 | 7.98 | 9.15 | viability, T/C [16]: 10.8%; viability, T/C [17]: 12.5%; viability, T/C [18]: 14.3%; viability, T/C [19]: 4.99%; viability, T/C [20]: 4.72%; viability, T/C [21]: 5.08%; viability, T/C [22]: 8.1%; viability, T/C [23]: 10.9%; viability, T/C [24]: 12.6%; viability, T/C [25]: 2.78%; viability, T/C [26]: 2.83%; viability, T/C [27]: 3.27%; viability, T/C [28]: 4.98%; viability, T/C [29]: 6.98%; viability, T/C [30]: 9.23%
